In data set [1] the test system is Caco-2 cells. In words: In vitro permeability assay using Caco-2 cell monolayers. Format: in vitro ADME, human. The settings on record: for permeability in the presence of Met: with 10 mM Met versus without. Here is the method:
The bioselenocompounds were evaluated and compared in accordance with the standard protocol of the in vitro permeability assay using Caco-2 cells.
Figure 3 Permeability from the apical side to the basolateral side of Caco-2 cells. The permeability of the nine bioselenocompounds was compared (a). A 500 μL aliquot of fresh medium containing 1 μg Se/mL of each bioselenocompound was poured into the insert and the medium in the lower chamber was collected after 90 min. Values and bars are means ± SD for 3 wells. Statistical analysis was performed by the Tukey test. […] The effects of Met on the permeability of SeMet and MeSeCys were evaluated (b). Hatched and solid bars represent with and without 10 mM Met, respectively. Points and bars are means ± SD for 3 wells. Statistical analysis include the one-way analysis of variance followed by the Student’s t-test. The level of significance was set at p < 0.05, and is indicated by an asterisk (*).
Confluent Caco-2 cells at the cell density of around 20,000 cells/cm^2 were harvested by trypsinization and suspended in basal medium (Corning, Corning, NY, USA) containing MITO+ Serum Extender (Corning) at the cell density of 4 × 10^5 cells/mL. A 0.5 mL aliquot of the cell suspension was seeded on the inserts of a Falcon 24-Multiwell Insert System (Corning). The inserts were transferred onto a 24-well plate that contained 1 mL of basal medium, and incubation was carried out for 24 h. Then, the basal medium was carefully removed from the wells and the inserts, and 1.0 and 0.5 mL aliquots of the differentiation medium (Entero-STIM) containing MITO+ Serum Extender (Corning) were added to the wells and the inserts, respectively. The plate was incubated for another 3 days to induce the formation of a monolayer of differentiated Caco-2 cells. The medium was carefully removed from the inserts and the inserts were washed with transport buffer (HBSS + 10 mM HEPES, pH 7.4). Then, a 350 μL aliquot of each Se compound solution in transport buffer or this solution with 10 mM L-methionine (Wako) was added to the insert chamber. These inserts were transferred onto a plate and a 50 μL aliquot was withdrawn from the chamber of each insert for measurement of the initial concentration of the donor chamber. One milliliter of transfer buffer was added to the plate wells and the plate was incubated on an orbital shaker at 37 °C for 90 min in a CO2 incubator. The transport buffer in the lower chamber was collected to determine Se concentration 90 min after the incubation. Se concentrations were measured by an inductively coupled plasma mass spectrometer (ICP-MS, Agilent 7700cx, Agilent, Hachiouji, Japan). The Se compound solution in the chamber of each insert was removed and a 300 μL aliquot of 300 μM Lucifer Yellow (LY) solution was added to the upper chamber. Then, the concentration of LY that permeated the lower chamber was determined by a fluorescence photometer (excitation wavelength: 485 nm, emission wavelength: 538 nm). Monolayers producing 0.3%–2.0% LY flux were recognized as intact monolayers of differentiated Caco-2 cells. Monolayers with flux exceeding 2.0% were excluded from the experiment.
On the technique in general: Passage across Caco-2 layers is used to estimate intestinal permeability.

For data set [2], the system named is selenoprotein P (SELENOP). In words: Bioavailability in vivo: recovery of serum SELENOP in Se-deficient rats by LC-ICP-MS. Particulars: oral 10 μg Se/rat once a day for 2 days, serum 24 h after administration. On the procedure: (§1) Two major serum selenoproteins were detected by LC-ICP-MS (Figure 4a). The peak detected at the retention time of 11.0 min was assigned to extracellular glutathione peroxidase (GPX3), and the peak at the retention time of 13.5 min was assigned to selenoprotein P (SELENOP) according to our previous literature. The abbreviations of the selenoproteins (GPX3 and SELENOP) were adopted in accordance with the latest nomenclature. We used the recovery amounts of serum selenoproteins in Se-deficient rats as the index of Se bioavailability when a selenocompound was administered to an Se-deficient rat. […] Sera sampled from rats administered each bioselenocompound were analyzed for the recovery of Se in the form of selenoproteins by LC-ICP-MS, and their bioavailabilities, namely, the assimilation of Se into GPX3 and SELENOP, are summarized in Figure 4c,d, respectively. Coinciding with a previous study, SELENOP was more efficiently recovered than GPX3 in the Se-deficient rats 24 h after the repletion of the bioselenocompounds except for TMSe^+. There were no significant differences in the recovery of GPX3 among all the bioselenocompounds except for TMSe^+ (Figure 4c). As SELENOP was more efficiently recovered, the recovery of SELENOP by all the bioselenocompounds except TMSe^+ was more obvious than that of GPX3 (Figure 4d). […] Therefore, there were no significant differences in the bioavailability in vivo among all the bioselenocompounds except TMSe^+.
(§2) Specific pathogen free (SPF) male Wistar rats (4 weeks of age) were purchased from Japan SLC (Shizuoka, Japan) and were housed in a humidity-controlled room maintained at 25 ± 2 °C with a 12 h light-dark cycle. The rats were fed a commercial diet (MF, Oriental Yeast Co., Ltd., Tokyo, Japan) and tap water ad libitum. After a one-week acclimation period, diet and water were changed to a Se-deficient diet (Oriental Yeast) and Milli-Q water (18.3 MΩ·cm), respectively. The rat fed the Se-deficient diet and the Milli-Q water for 3 weeks was used as an Se-deficient rat. The rats continuously fed the commercial diet and tap water served as the positive control.
(§3) The Se-deficient rats were orally administered each Se compound in saline at a dose of 10 μg Se/rat once a day for 2 consecutive days. The saline-administered rats served as the negative control. All the rats were sacrificed 24 h after administration by exsanguination under anesthesia. Non-heparinized blood was collected and clotted blood was centrifuged at 1600× g for 10 min to obtain serum. A 20 μL aliquot of the serum was applied to an HPLC coupled with an ICP-MS to analyze the distribution of Se. […]

Data set [3] relates to extracellular glutathione peroxidase (GPX3). In words: Bioavailability in vivo: recovery of serum GPX3 in Se-deficient rats by LC-ICP-MS. The settings on record: oral 10 μg Se/rat once a day for 2 days, serum 24 h after administration. Here is the method: as §1, §2, §3
In a further data set the test system is HepG2 cells. The data set is described as follows: Cell viability / proliferation assay (CellTiter 96 Aqueous One) in HepG2 cells. Particulars: for effect on cell proliferation: 24 h exposure; for effect on cell viability / proliferation / dose at which cytotoxicity / reduced cell viability was seen: 48 h exposure; for dose from which toxicity was dose-dependent: 24 and 48 h exposure. On the procedure: (§4) Caco-2 cells were used in the in vitro permeability assay in the next experiment, and the cytotoxicity of bioselenocompounds was assayed 6 h after exposure to evaluate the harmful effects of bioselenocompounds on the cells. The cytotoxicity and/or proliferative effects of bioselenocompounds on HepG2 cells were analyzed 24 and 48 h after exposure.
(§5) A human colon carcinoma cell line (Caco-2) and a human hepatocyte carcinoma cell line (HepG2) were obtained from Riken BioResource Center (Wako, Japan). The composition of the passaging medium for Caco-2 or HepG2 was Eagle’s Minimum Essential Medium (MEM) with 20% FBS, 1% non-essential amino acid (NEAA), and 1% penicillin-streptomycin, or Dulbecco’s Modified Eagle’s Medium (DMEM) with 10% FBS and 1% penicillin-streptomycin, respectively. Caco-2 cells were seeded on a 96-well plate at 5500 cells/well and incubation was carried out for 2 days. […] Cell viability was determined by the CellTiter 96® Aqueous One Solution Cell Proliferation Assay (Promega, Madison, WI, USA) based on mitochondrial respiratory activity. HepG2 cells were seeded on a 96-well plate at 5000 cells/well and incubation was carried out for 1 day. Then, the cells were exposed to a Se compound, and cell viability was determined by using the same protocol as that mentioned above.

Data set [4] has as its system Caco-2 cells. In words: Cell viability assay (CellTiter 96 Aqueous One) in Caco-2 cells. Particulars: 6 h exposure; for dose at or above which cell viability was significantly reduced: p < 0.05. On the procedure: as §4, §5
Another data set has as its system Caco-2 and HepG2 cells. The data set is described as follows: Proliferative effect under standard culture conditions for Caco-2 and HepG2 cells. Format: cell-based, human. Particulars: data not shown. On the procedure:
as §5

Details of data set [5]: method as in PMID 6076213. Particulars: selenyl group versus sulfhydryl group; cited from earlier work.
Details of data set [6]: method as in PMID 26243445. Particulars: cited from earlier work.
The mark [7] stands for this setting: Caco-2 monolayer, 1 μg Se/mL, 90 min, mean ± SD for 3 wells.

As for `C[Se+](C)C.[I-]` [TMSe^+, Trimethylselenonium iodide], in the data set with Caco-2 cells [1] (Caco-2), the percentage permeation is 3% ± 0.42%. Further, in data set [2], the “recovery of serum SELENOP (assimilation of Se)” value was “did not have any apparent effects”. Besides, the “recovery of serum GPX3 (assimilation of Se)” value in data set [3] is “did not have any apparent effects”.

`C[Se]CC[C@H](N)C(=O)O` [SeMet, seleno-L-methionine]: in the data set on HepG2 cells, the “effect on cell proliferation” value is reported as “stimulated the proliferation” and the “effect on cell viability / proliferation” value is reported as “marginal cytotoxicity rather than a proliferative effect”. Also, the “permeability in the presence of Met” value with Caco-2 cells [1] (Caco-2 monolayer) is recorded as “reduced”.

As to `N[C@@H](C[Se][Se]C[C@H](N)C(=O)O)C(=O)O` [SeCys2, L-selenocystine], in the data set on HepG2 cells, the “dose from which toxicity was dose-dependent” value is on record as at least 0.4 μg Se/mL. Also, the “dose at or above which cell viability was significantly reduced” value with Caco-2 cells [4] is at least 0.8 μg Se/mL.

`CSCC[C@H](N)C(=O)O` [Met, L-methionine]: the proliferative effects result in the data set on Caco-2 and HepG2 cells is listed as “no proliferative effects”.

As to `O=[Se]([O-])[O-].[Na+].[Na+]` [selenite, Sodium selenite], the “dose from which toxicity was dose-dependent” value with HepG2 cells is at least 0.8 μg Se/mL. Moreover, in the data set with Caco-2 cells [1] (setting [7]), the percentage permeation is 3.4% ± 0.066%. In addition, the “dose at or above which cell viability was significantly reduced” value in the data set on Caco-2 cells [4] was at least 8.0 μg Se/mL. The “recovery of serum SELENOP (assimilation of Se)” value in data set [2] is on record as “recovery of both selenoproteins was observed”. For the same molecule, the “recovery of serum GPX3 (assimilation of Se)” value in data set [3] was “recovery of both selenoproteins was observed”.

For the molecule `C[Se]C1OC(CO)C(O)C(O)C1NC(C)=O` (stereo not drawn) [SeSug1, Se-methylseleno-N-acetylgalactosamine], in data set [2], the “recovery of serum SELENOP (assimilation of Se)” value is “equivalent effect to selenite”. Moreover, the “recovery of serum GPX3 (assimilation of Se)” value in data set [3] is given as “equivalent effect to selenite”.

Regarding `N[C@@H](CS)C(=O)O` [Cys], in data set [5], the pKa (usually the negative logarithm of the acid dissociation constant) was 8.3.

With Lucifer Yellow [LY, reference compound], in the data set with Caco-2 cells [1] (Caco-2), the percentage permeation was 0.81% ± 0.36%.

In the case of `C[Se]C[C@H](N)C(=O)O` [MeSeCys, Se-Methylseleno-L-cysteine], in the data set on HepG2 cells, the “effect on cell proliferation” value is “stimulated the proliferation”, the “dose at which cytotoxicity / reduced cell viability was seen” value is at least 40 μg Se/mL and the “effect on cell viability / proliferation” value is recorded as “still induced the cell proliferation at low doses”. The “permeability in the presence of Met” value in the data set with Caco-2 cells [1] (Caco-2 monolayer) is “reduced”. Besides, the “dose from which cell viability was significantly increased (proliferation)” value with Caco-2 cells [4] (dose-dependent) is listed as at least 0.8 μg Se/mL.

Take `N#C[Se-].[K+]` [SeCN^−, potassium selenocyanate]: the “dose at which cytotoxicity / reduced cell viability was seen” value with HepG2 cells came out at 80 μg Se/mL. Besides, in the data set on Caco-2 cells [1] (setting [7]), the percentage permeation is reported as 3.8% ± 0.44%. Further, the “recovery of serum SELENOP (assimilation of Se)” value in data set [2] was “comparable to selenite”. Moreover, the “recovery of serum GPX3 (assimilation of Se)” value in data set [3] is “comparable to selenite”. For the same molecule, in data set [6], the “toxicity relative to selenite” value was “less toxic than selenite”.

On to `N[C@@H](C[SeH])C(=O)O` [SeCys, selenocysteine], for which the pKa in data set [5] is given as 5.2.

As for S-methylcysteine [MeCys], the proliferative effects result with Caco-2 and HepG2 cells is given as “no proliferative effects”.

(Values after publication PMC5372522, “Bioavailability Comparison of Nine Bioselenocompounds In Vitro and In Vivo” (International Journal of Molecular Sciences, 2017).)
